# Measured values from publication PMC10254852, “Design, Synthesis and Anticancer Evaluation of Nitroimidazole Radiosensitisers” (Molecules, 2023).
# Like-named read-outs stand apart in the source and are kept apart here.
# Legend:
# [1] = Tolerability at maximum achievable dose, i.v.; assay type: in vivo; details: i.v. injection, NIH-III mice
# Source text: The most promising 2-nitroimidazole 34 and 5-nitroimidazole 38 compounds were selected for in vivo evaluation on the basis of solubility, in vitro cytotoxicity and radiosensitisation data. These compounds were both well tolerated by i.v. injection in NIH-III mice at their maximum achievable dose (MAD) of 2.2 mmol/kg. This MAD was also achieved for some of our earlier compounds, but only when we employed a phosphate prodrug strategy owing to their poor solubility. […] The Cmax and AUC exceeded that achieved for earlier phosphate prodrugs 9–12, but was less than 2. On this basis we advanced both morpholine analogues into in vivo radiosensitisation studies.
# (§1) Specific pathogen-free six- to eight-week-old female NIH-III mice, bred in the Vernon Jansen Unit, University of Auckland, were used for animal experiments. Animals had ad libitum access to food and water and were maintained in microisolator cages on a 12 h light/dark cycle. All treatments were administered by i.v. injection at a dose of 2.2 mmol/kg and injection volume of 10 mL/kg. Compounds 2, 34 and 38 were administered as solutions in saline containing 1% DMSO or for 9–12 as solutions in saline containing 2 molar equivalents of NaHCO3. Control animals received an i.v. injection of saline at 10 mL/kg. All animal experiments were conducted under the auspices of the University of Auckland Animal Ethics Committee (approval 1781).
# [2] = test system: HCT116/54C tumour xenografts; assay: Tumour growth inhibition in combination with radiation; assay type: in vivo, NIH-III mice; details: HCT116/54C tumours
# Experimental: as §1
# Compounds were evaluated for their ability to inhibit tumour growth in combination with a single dose of radiation (10 Gy) in HCT116/54C or UT-SCC-74B tumour xenografts on the backs of NIH-III mice. In addition, a fractionated radiation schedule (5 Gy on Days 1, 7 and 14) was explored in HCT116/54C tumour xenografts. Mice were randomly assigned to 4 treatment groups and treated with: (A) vehicle control, (B) 10 Gy RAD only, (C) sensitiser only, or (D) sensitiser given 10 min before 10 Gy RAD. Drugs were administered by i.v. injection at 2.2 mmol/kg either as a single dose or three doses on Days 1, 7 and 14 in the fractionated study. Treatment commenced when the average tumour size reached approximately 250 mm^3, and tumour size was measured until study endpoint. Mice were placed in a custom-built lead-shielded jig that allowed irradiation of the whole tumour but shielded the mouse from radiation. Survival analysis represented the time taken for tumours to increase in relative tumour volume by 4× from the start of treatment (RTV^4). The significance of differences in activity between the groups was assessed by log-rank with Holm–Sidak multiple comparison analysis.
# HCT116/54C cells [3] = assay: In vitro cytotoxicity, 4 h exposure oxic/anoxic, 5-day regrowth, sulforhodamine B; assay type: cell-based, human; details: HCT116/54C; for IC50: Homo sapiens, 4 h exposure, mean ± SEM, n = 3–4
# Source text: (§2) This allowed derivation of hypoxia cytotoxicity ratios (HCR) as IC50(oxic)/IC50(anoxic) in an HCT116 subclone HCT116/54C and two HNSCC cell lines, FaDu and UT-SCC-74B (Table 2).
# (§3) HCT116/54C is an HCT116 subline that originated from a mixed culture with UT-SCC-54C cells, which was supplied alongside UT-SCC-74B by Prof. Bradly Wouters (University Health Network, Toronto, ON, Canada). HCT116/54C and UT-SCC-74B cells were passaged in minimum essential media (MEM, ThermoFisher Scientific, Waltham, MA, USA) with 10% foetal calf serum (FCS, Moregate Biotech, Hamilton, New Zealand), 4.5 mg/mL D-glucose (Sigma-Aldrich, St. Louis, MO, USA) and 20 mM HEPES (Sigma-Aldrich). FaDu cells were sourced from American Type Culture Collection and cultured in αMEM (ThermoFisher Scientific) with 10% FCS. All cell lines were confirmed mycoplasma-free by PlasmoTest (InvivoGen, San Diego, CA, USA) and were derived from STR-authenticated cryopreserved stocks. Log-phase cells were seeded into 96-well plates at 800 cells/well for HCT116/54C and 1500 cells/well for FaDu. […] After drug washout, cells were grown and stained as for the oxic IC50 assays. The hypoxic cytotoxicity ratio HCR was determined as HCR = IC50(oxic)/IC50(anoxic).
# UT-SCC-74B cells = assay: as above; assay type: cell-based, human; details: for IC50: Homo sapiens, 4 h exposure, mean ± SEM
# Source text: as §2, §3
# FaDu cells = assay: as above; assay type: cell-based; details: for IC50: Homo sapiens, 4 h exposure, mean ± SEM
# Source text: as §2, §3
# HCT116/54C cells [4] = assay: In vitro radiosensitisation under anoxia, clonogenic survival; assay type: cell-based, human; details: compound 1 mM, radiation dose for 1% survival/radiation dose for 1% survival with compound, mean ± SEM
# Experimental: Next, we evaluated in vitro radiosensitisation by using a representative subset of nitroimidazole compounds in HCT116/54C cells with a clonogenic survival endpoint. Radiosensitisation was determined by treating cells under anoxia with a range of radiation doses alone and with compounds at equimolar doses (1 mM). Sensitiser enhancement ratios (SER) were calculated as the ratio of radiation dose required for 1% clonogenic survival alone or with compound (Table 3).
# Cells were seeded onto 96-well plates at 10^5 cells per well and allowed to attach for 2 h. […] The plates were irradiated (Eldorado 78 ^60Co teletherapy unit, ~2 Gy/min) with 15 Gy under anoxia at room temperature for SR experiments. A metal wedge placed on the top of the metal chamber was used to achieve a graduated radiation dose across the plate, varying from 7 to 29 Gy, calibrated by Fricke dosimetry with ammonium thiocyanate as previously described for SER experiments. The control plate (compound alone, no radiation) was left inside the anaerobic chamber at room temperature during the irradiation period. After treatment, the cells were trypsinized and suspended in usual media + 1% penicillin-streptomycin (ThermoFisher Scientific), and 10-fold serial dilutions were plated for clonogenic survival. After 10 days, plates were stained with methylene blue (2 g/L in EtOH/H2O, 1:1 v/v) and colonies with more than 50 cells were counted. The surviving fraction (SF) was determined as: SF = PE(irradiated)/PE(control) where the plating efficiency (PE) = (No. of colonies)/(No. of cells plated). SF was plotted against radiation dose. Survival ratios (SR) were calculated: SR = (cell survival with radiation)/(cell survival with drug + radiation). Sensitizer enhancement ratios (SER) were calculated: SER = (radiation dose for 1% survival without compound)/(radiation dose for 1% survival with compound).
# HCT116/54C tumours = assay: Tumour radiosensitisation: ex vivo clonogenic assay; assay type: in vivo, NIH-III mice
# Experimental: as §1
# (§4) Compounds were evaluated for in vivo radiosensitisation of hypoxic cells in HCT116/54C and UT-SCC-74B human tumour xenografts using clonogenic survival as an endpoint, using previously report methods. Tumours were grown subcutaneously on the flanks of NIH-III mice by injecting 5 × 10^6 HCT116/54C cells or UT-SCC-74B cells. Once tumours reached a volume of approximately 250 mm^3, mice were randomly assigned to 4 treatment groups and treated with: (A) vehicle control, (B) 10 Gy RAD only, (C) sensitiser only, or (D) sensitiser given before 10 Gy RAD. Drugs were administered as a single i.v. dose at 2.2 mmol/kg. […] Tumours were excised 18 h after treatment, and tumour cells were dissociated enzymatically and plated to determine the number of surviving (clonogenic) cells per gram of tumour tissue. SF and SR were calculated as described above. Statistical significance of drug effects was tested using one-way ANOVA with Sidak tests for multiple comparisons vs. radiation alone (Table 5).
# UT-SCC-74B tumours = assay: as above; assay type: in vivo, NIH-III mice
# Experimental: as §1, §4
# [5] = anoxic, n = 3–4, read-out: IC50 Anoxic
# [6] = oxic, n = 3–4, read-out: IC50 Oxic
# [7] = 2.2 mmol/kg i.v. 5 min prior to 10 Gy radiation, surviving fraction after radiation/surviving fraction after drug + radiation
# [8] = 2.2 mmol/kg i.v. + 10 Gy, one-way ANOVA
# [9] = 2.2 mmol/kg i.v., 10 Gy, mechanism experiment (Figure 3)
smiles,measurement,setting,value
O=[N+]([O-])c1cncn1CS(=O)(=O)NCCN1CCOCC1 [Compound 38],"maximum achievable dose (MAD), well tolerated",[1],2.2 mmol/kg
same,survival (time to RTV^4) vs radiation alone,"[2]; fractionated radiation, p < 0.05",significantly increased survival compared to radiation alone
same,tumour growth delay with fractionated radiation,"[2]; qw × 3, 5 Gy, 2.2 mmol/kg i.v.",delayed tumour growth relative to radiation alone
same,HCR,HCT116/54C cells [3]; IC50(oxic)/IC50(anoxic),11.2
same,IC50,"HCT116/54C cells [3]; anoxic, read-out: IC50 Anoxic",1.2 ± 0.1 mM
same,IC50,"HCT116/54C cells [3]; oxic, read-out: IC50 Oxic",13.7 ± 2 mM
same,IC50,UT-SCC-74B cells; [5],1.5 ± 0.3 mM
same,IC50,UT-SCC-74B cells; [6],13.1 ± 2.8 mM
same,HCR,UT-SCC-74B cells; IC50(oxic)/IC50(anoxic),8.6
same,IC50,FaDu cells; [5],1.8 ± 0.1 mM
same,IC50,FaDu cells; [6],10.6 ± 0.6 mM
same,HCR,FaDu cells; IC50(oxic)/IC50(anoxic),5.8
same,SER at 1 mM,HCT116/54C cells [4],1.39 ± 0.01
same,Sensitisation Ratio,HCT116/54C tumours; [7],3.43
same,enhancement of tumour killing of radiotherapy (RAD vs drug + RAD),HCT116/54C tumours; [8],significantly enhanced the tumour killing of radiotherapy
same,"SR, drug given 5 min before radiation",HCT116/54C tumours; [9],8.26
same,"SR, drug given 20 min after radiation",HCT116/54C tumours; [9],1.38
same,Sensitisation Ratio,UT-SCC-74B tumours; [7],11.5
same,enhancement of tumour cell killing by radiotherapy (RAD vs drug + RAD),UT-SCC-74B tumours; [8],significantly enhanced tumour cell killing by radiotherapy
